Tests used:
Assay in all cases: Growth inhibition of BT3(ΔPPO) E. coli transformed with 98% homology variant, LB solid medium
Conditions in all cases: 1% agar LB solid medium, 37° C., 14~16 hours, light
[1] = test system: CyPPO8 variant; assay type: cell-based, Halothece sp. PCC 7418
Excerpt: (§1) To investigate amino acid sequence homology range of CyPPO2, CyPPO4 and CyPPO8 which maintain herbicide resistance, a part of the amino acid sequence of CyPPO2, CyPPO4 or CyPPO8 protein was replaced by a part of the amino acid sequence of NtPPO (tobacco-derived PPO gene). As a result, the amino acid sequence of the resulting CyPPO2 variant is represented by SEQ ID NO: 12, and its nucleotide sequence thereof is represented by SEQ ID NO: 13. […] Further, the amino acid sequence of the CyPPO4 variant is represented by SEQ ID NO: 14, and its nucleotide sequence thereof is represented by SEQ ID NO: 15. […] Further, the amino acid sequence of the CyPPO8 variant is represented by SEQ ID NO: 16, and its nucleotide sequence thereof is represented by SEQ ID NO: 17.
(§2) Herbicide resistance of the amino acid sequence variant of CyPPO2, the amino acid sequence variant of CyPPO4, and the amino acid sequence variant of CyPPO8 was investigated in PPO-deficient BT3 E. coli [BT3(ΔPPO)], and a specific experimental method is similar to that of Example 3. In the same manner as in Example 3, as a negative control, the wild-type PPO (wild-type AtPPO1) of Arabidopsis thaliana was employed as a reference for herbicide-sensitivity. As a positive control, the mutant AtPPO1 which was prepared by amino acid replacement of Y426M and S305L in the wild-type amino acid sequence was employed as a reference for herbicide-resistance.
(§3) An autoclave was used under conditions of 121° C. and 15 minutes, and an incubator was used at 37° C. with lighting of 169 μmol m^−2 s^−1 for a culture time of 14˜16 hours. A UV-visible spectrophotometer was used at 600 nm. PCR was performed under conditions of at 94° C. for 4 minutes, and 25 cycles (at 94° C. for 30 seconds, at 56˜60° C. for 30 seconds and at 72° C. for 3 minutes), at 72° C. for 5 minutes and at 4° C. for 5 minutes. Respective herbicides were prepared at a concentration of 200 mM in DMSO, and stored at −20° C. Before use, the herbicides were diluted and added to LB broth medium (containing […]).
(§4) Saturated cells were inoculated in 3 ml of LB liquid medium containing chloramphenicol, and then cultured at 37° C., 200 rpm for 5 hours. Density of the cultured cells was measured at 600 nm, and the transformants were diluted with LB liquid medium to have the same absorbance (OD600) per 1 ml thereof (OD600=0.5). Agar was added to LB liquid medium at a concentration of 1%, and then autoclaved. Chloramphenicol (34 μg/ml) and herbicide were added and mixed. Cells diluted equally was diluted at a density of 10^0, 10^−1, 10^−2, 10^−3, 10^−4, and 10^−5. Each 10 μl of the cells was dropped on 1% agar, LB solid medium, and cultured in a 37° C. incubator for 14˜16 hours (light condition: 169 μmol m^−2s^−1).
(§5) To prepare BT3(ΔPPO) competent cells, BT3(ΔPPO) strain was added to 5 ml of LB broth containing 50 μg/ml kanamycin and 20 μg/ml hematin, and cultured in a 37° C. shaking incubator for 12 hours in the dark. Thereafter, 5 ml of the culture was added to 100 ml of LB broth containing 20[…] μg/ml hematin, and cultured in a 37° C. shaking incubator in the dark until OD600 reached 0.5. BT3(ΔPPO) competent cells were prepared from the cultured E. coli using CaCl2 according to protocols for preparing competent cells. Next, to transform the BT3(ΔPPO) strain with the respective vectors harboring the CyPPO2 variant, CyPPO4 variant and CyPPO8 variant, 5 μl of the vector was added to 100 μl of BT3(ΔPPO) competent cells, and the mixture was mixed well, allowed to react on ice for 20 minutes, and then left at 42° C. for 40 seconds. After stabilization on ice for 2 minutes, 1 ml of LB broth was added to BT3(ΔPPO), and cultured at 37° C. for 1 hour with shaking. The cells cultured in the medium were collected according to the type of the gene insert, and then spread on LB solid medium containing chloramphenicol (34 μg/ml), and cultured at 37° C. for 12 hours or longer. Thereafter, single colonies thereof were cultured in LB liquid medium. […]

[2] = test system: CyPPO4 variant; assay type: cell-based, Lyngbya sp. PCC 8106
Excerpt: as §1, §2, §3, §4, §5

[3] = test system: CyPPO2 variant; assay type: cell-based, Oscillatoria nigro-viridis PCC 7112
Excerpt: as §1, §2, §3, §4, §5

Measured: concentration at which growth inhibition was hardly observed

O=C(O)c1cc(Oc2ccc(C(F)(F)F)cc2Cl)ccc1[N+](=O)[O-] [Acifluorfen]
25 µM: [1] | [2] | [3]

CCOc1cc(Oc2ccc(C(F)(F)F)cc2Cl)ccc1[N+](=O)[O-] [Oxyfluorfen]
25 µM: [1] | [2] | [3]

COC(=O)CCNC(=O)C(C)Sc1cc(-n2c(=O)cc(C(F)(F)F)n(C)c2=O)c(F)cc1Cl (stereo not drawn) [Tiafenacil]
25 µM: [1] | [2] | [3]

COC(=O)CSc1cc(/N=c2\sc(=O)n3n2CCCC3)c(F)cc1Cl [Fluthiacet-methyl]
25 µM: [1] | [2] | [3]

CC(C)Oc1cc(-n2nc(C(C)(C)C)oc2=O)c(Cl)cc1Cl [Oxadiazon]
25 µM: [1] | [2] | [3]

CCOC(=O)COc1cc(-c2nn(C)c(OC(F)F)c2Cl)c(F)cc1Cl [Pyraflufen-ethyl]
25 µM: [1] | [2] | [3]

C=CCOC(=O)C(C)(C)OC(=O)c1cc(-n2c(=O)cc(C(F)(F)F)n(C)c2=O)ccc1Cl [Butafenacil]
25 µM: [1] | [2] | [3]

CC(C)=C1OC(=O)N(c2cc(OC3CCCC3)c(Cl)cc2F)C1=O [Pentoxazone]
25 µM: [1] | [2] | [3]

C#CCN(C)c1c(C#N)cnn1-c1nn2c(c1Cl)CCCC2 [Pyraclonil]
25 µM: [1] | [2] | [3]

C#CCN1C(=O)COc2cc(F)c(N3C(=O)C4=C(CCCC4)C3=O)cc21 [Flumioxazin]
25 µM: [1] | [2] | [3]

CS(=O)(=O)NC(=O)c1cc(Oc2ccc(C(F)(F)F)cc2Cl)ccc1[N+](=O)[O-] [Fomesafen]
25 µM: [1] | [2] | [3]

Cc1nn(-c2cc(NS(C)(=O)=O)c(Cl)cc2Cl)c(=O)n1C(F)F [Sulfentrazone]
25 µM: [1] | [2] | [3]

CC(C)N(C)S(=O)(=O)NC(=O)c1cc(-n2c(=O)cc(C(F)(F)F)n(C)c2=O)c(F)cc1Cl [Saflufenacil]
25 µM: [1] | [2] | [3]
